Experimental data from patent US9681664B2, “Macrocyclic picolinamides as fungicides” (Dow Agrosciences LLC, priority 2012, dated 2017).
Like-named read-outs stand apart in the source and are kept apart here.

Tests used:
Assay type in all cases: in vivo
[1] = test system: Mycosphaerella graminicola; Anamorph: Septoria tritici; experiment: Leaf blotch of wheat (SEPTTR) disease control on wheat seedlings; conditions: Zymoseptoria tritici; for pest or weed control at 121.5 g/ha: low volume application, 121.5 g/H
In short: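 Wheat seedlings (Yuma, first leaf emerged) sprayed to run-off with compound in acetone/water with 110 ppm Triton X-100, or track-sprayed as EC with 0.1% Trycol 5941. Septoria tritici spores inoculated before or after treatment. Dew chambers, then 20 °C greenhouse. Percent disease control derived from severity (0–100%) relative to untreated plants.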

[2] = test system: Puccinia triticina; Synonym: Puccinia recondite f. sp. tritici; experiment: Wheat brown rust (PUCCRT) disease control on wheat seedlings; conditions: Puccinia triticina; for pest or weed control at 121.5 g/ha: low volume application, 121.5 g/H
In short: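 Acetone solutions diluted in nine volumes of water with 110 ppm Triton X-100 sprayed to run-off on first-leaf Yuma wheat seedlings (track spray: EC with 0.1% Trycol 5941). Puccinia triticina spores inoculated before or after treatment; overnight dark dew at 22° C., 100% RH, then greenhouse at 24° C. for disease development.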

Phakopsora pachyrhizi = experiment: Asian soybean rust (PHAKPA) disease control; conditions: topical, high volume
Description: Technical grades of materials were dissolved in acetone, which were then mixed with nine volumes of water containing 0.011% Tween 20. The fungicide solutions were applied onto soybean seedlings using an automated booth sprayer to run-off. All sprayed plants were allowed to air dry prior to further handling.
Soybean plants (variety Williams 82) were grown in soil-less Metro mix, with one plant per pot. Two weeks old seedlings were used for testing. Plants were inoculated either 3 days prior to or 1 day after fungicide treatments. Plants were incubated for 24 h in a dark dew room at 22° C. and 100% RH then transferred to a growth room at 23° C. for disease to develop. Disease severity was assessed on the sprayed leaves.

[3] = 24 h, High volume application, 1 Day Protectant, read-out: SEPTTR 1DP disease control
[4] = 72 h, High volume application, 3 Day Curative, read-out: SEPTTR 3DC disease control
[5] = 24 h, High volume application, 1 Day Protectant, read-out: PUCCRT 1DP disease control
[6] = 72 h, High volume application, 3 Day Curative, read-out: PUCCRT 3DC disease control
[7] = 24 h, 1 Day Protectant, read-out: Disease Control PHAKPA 1DP
[8] = 24 h, Wheat Leaf Blotch, 1 Day Protectant, high volume application, read-out: Disease Control SEPTTR 1 DP 100 ppm
[9] = 72 h, Wheat Leaf Blotch, 3 Day Curative, high volume application, read-out: Disease Control SEPTTR 3 DC 100 ppm
[10] = 24 h, Wheat Brown Rust, 1 Day Protectant, high volume application, read-out: Disease Control PUCCRT 1 DP 100 ppm
[11] = 72 h, Wheat Brown Rust, 3 Day Curative, high volume application, read-out: Disease Control PUCCRT 3 DC 100 ppm
[12] = 24 h, Wheat Leaf Blotch, 1 Day Protectant, read-out: Disease Control SEPTTR 1 DP 121.5 g/H
[13] = 72 h, Wheat Leaf Blotch, 3 Day Curative, read-out: Disease Control SEPTTR 3 DC 121.5 g/H
[14] = 24 h, Wheat Brown Rust, 1 Day Protectant, read-out: Disease Control PUCCRT 1 DP 121.5 g/H
[15] = 72 h, Wheat Brown Rust, 3 Day Curative, read-out: Disease Control PUCCRT 3 DC 121.5 g/H

SMILES	pest or weed control at 100 ppm [1, 3]	pest or weed control at 100 ppm [1, 4]	pest or weed control at 100 ppm [2, 5]	pest or weed control at 100 ppm [2, 6]	pest or weed control at 25 ppm (Phakopsora pachyrhizi; [7])	pest or weed control at 25 ppm (Phakopsora pachyrhizi; 72 h, 3 Day Curative, read-out: Disease Control PHAKPA 3DC)	pest or weed control at 100 ppm [1, 8]	pest or weed control at 100 ppm [1, 9]	pest or weed control at 100 ppm [2, 10]	pest or weed control at 100 ppm [2, 11]	pest or weed control at 121.5 g/ha [1, 12]	pest or weed control at 121.5 g/ha [1, 13]	pest or weed control at 121.5 g/ha [2, 14]	pest or weed control at 121.5 g/ha [2, 15]
COc1ccnc(C(=O)N[C@H]2CCC[C@H](OCC(C)C)[C@@H](OCCCC(F)(F)F)[C@H](C)OC2=O)c1OCOC(C)=O [F44]	80 to 100%	80 to 100%	80 to 100%	80 to 100%	80 to 100%	–	–	–	–	–	–	–	–	–
CCCO[C@H]1[C@H](C)OC(=O)[C@@H](NC(=O)c2nccc(OC)c2OCOC(C)=O)CCC[C@@H]1OCC(C)C [F45]	80 to 100%	80 to 100%	80 to 100%	80 to 100%	80 to 100%	80 to 100%	–	–	–	–	–	–	–	–
COc1ccnc(C(=O)N[C@H]2CCC[C@H](OCC(C)C)[C@@H](OC(=O)C3CC3)[C@H](C)OC2=O)c1OCOC(C)=O [F46]	80 to 100%	80 to 100%	80 to 100%	80 to 100%	80 to 100%	–	–	–	–	–	–	–	–	–
CCCO[C@H]1[C@H](C)OC(=O)[C@@H](NC(=O)c2nccc(OC)c2OC(C)=O)CCC[C@@H]1OCC(C)C [F47]	80 to 100%	80 to 100%	80 to 100%	80 to 100%	< 0%	–	–	–	–	–	–	–	–	–
COc1ccnc(C(=O)N[C@H]2CCC[C@H](OCC(C)C)[C@@H](OC/C=C/C(F)(F)F)[C@H](C)OC2=O)c1OCOC(C)=O [F59]	80 to 100%	80 to 100%	80 to 100%	80 to 100%	80 to 100%	–	–	–	–	–	–	–	–	–
CCCO[C@H]1[C@H](C)OC(=O)[C@@H](NC(=O)c2nccc(OC)c2O)CCC[C@@H]1Oc1cccc(F)c1 [F280]	–	–	–	–	–	–	80 to 100%	80 to 100%	80 to 100%	0 to 80%	–	–	–	–
CCCO[C@H]1[C@H](C)OC(=O)[C@@H](NC(=O)c2nccc(OC)c2O)CCC[C@@H]1Oc1cc(C)cc(C)c1 [F281]	–	–	–	–	–	–	0 to 80%	0 to 80%	80 to 100%	0 to 80%	–	–	–	–
CCCO[C@H]1[C@H](C)OC(=O)[C@@H](NC(=O)c2nccc(OC)c2OC(C)=O)CCC[C@@H]1Oc1cc(C)cc(C)c1 [F282]	–	–	–	–	–	–	80 to 100%	80 to 100%	80 to 100%	80 to 100%	80 to 100%	80 to 100%	80 to 100%	80 to 100%
CCCO[C@H]1CCC[C@H](NC(=O)c2nccc(OC)c2O)C(=O)O[C@@H](C)[C@@H]1Oc1ccc(-c2ccccc2)cc1 [F283]	–	–	–	–	–	–	80 to 100%	0 to 80%	80 to 100%	0 to 80%	–	–	–	–
CCCO[C@H]1[C@H](C)OC(=O)[C@@H](NC(=O)c2nccc(OC)c2OC(C)=O)CCC[C@@H]1Oc1cccc(F)c1 [F284]	–	–	–	–	–	–	80 to 100%	80 to 100%	80 to 100%	80 to 100%	80 to 100%	80 to 100%	80 to 100%	80 to 100%
CCCO[C@H]1CCC[C@H](NC(=O)c2nccc(OC)c2OC(C)=O)C(=O)O[C@@H](C)[C@@H]1Oc1ccc(Br)cc1 [F285]	–	–	–	–	–	–	80 to 100%	80 to 100%	80 to 100%	0 to 80%	80 to 100%	80 to 100%	80 to 100%	80 to 100%
